Patent US9463252B2, “Auristatin drug linker conjugates” (priority 2008, dated 2016)

Key:
786-O = test: Cytotoxicity of Auristatin-Peptide-h1F6 conjugates, resazurin assay; type: cell-based, human; conditions: for IC50 786-0: Table 4
Source text: (§1) The conjugates contain approximately 4 drugs per antibody.

Caki-1 = test: as above; type: cell-based
Source text: as §1

L428 = test: as above; type: cell-based
Source text: as §1

Caki-2 = test: as above; type: cell-based
Description: as §1
Following the procedure described as Examples 57 and 58, Auristatin-Peptide-h1F6 conjugates were evaluated on CD70^+ cell, such as 786-O, Caki-1, Caki-2, and L428. Conjugates contain approximately 4 drugs per antibody.

HCT-116 (CD70−) = test: Cytotoxicity of Auristatin-Peptide-h1F6 conjugates, CD70- control cell line; type: cell-based
Source text: as §1

LP-1 = test: Cytotoxicity of Auristatin-Peptide-h1F6 conjugates, resazurin assay; type: cell-based, human
Source text: as §1

UMRC-3 = test: as above; type: cell-based
Source text: as §1

U251 = test: as above; type: cell-based; conditions: Table 4, ~4 drugs/Ab
Source text: as §1

[1] = Table 10, h1F6-Drug(4) conjugates, aryl or alkyl maleimides
[2] = Table 5, h1F6 conjugates, ~4 drugs/Ab
[3] = Table 8, h1F6 conjugates, D vs L amino acid in second linker position
[4] = Table 4, h1F6 conjugates, ~4 drugs/Ab
[5] = Table 9, h1F6-Drug(4) conjugates, mono- vs dipeptide linker
[6] = Table 7, h1F6 conjugates, AF vs MMAF

Row | Substance | IC50 786-O (786-O; [2]) | IC50 Caki-1 (Caki-1; [2]) | IC50 L428 (L428; [2]) | IC50 HCT-116 (CD70−) (HCT-116 (CD70−); Table 5, ~4 drugs/Ab) | IC50 Caki-2 (Caki-2; [2]) | other results
1 | AM-Asparagine-(D)Lysine-diaminoethane-benzoyl maleimide [AM-Asn-(D)Lys-aryl maleimide] | – | – | – | – | – | IC50 786-O (786-O; [1]): 0.016 µg/mL; IC50 Caki-1 (Caki-1; [1]): 0.01 µg/mL; IC50 L428 (L428; [1]): 0.023 µg/mL; IC50 Caki-2 (Caki-2; [1]): 0.017 µg/mL
2 | AF-Asparagine-Proline-diaminoethane-propionyl maleimide [AF-Asn-Pro] | 0.011 µg/mL | 0.012 µg/mL | 0.023 µg/mL | >1 µg/mL | 0.032 µg/mL | –
3 | AF-Arginine-(D)Lysine-diaminoethane-propionyl maleimide [AF-Arg-(D)Lys] | 0.008 µg/mL | 0.01 µg/mL | 0.047 µg/mL | >1 µg/mL | 0.008 µg/mL | –
4 | AF-Lysine-(D)Lysine-diaminoethane-propionyl maleimide [AF-Lys-(D)Lys] | 0.009 µg/mL | 0.008 µg/mL | 0.037 µg/mL | >1 µg/mL | 0.009 µg/mL | –
5 | AF-Asparagine-(L)Lysine-diaminoethane-propionyl maleimide [AF-Asn-(L)Lys] | – | – | – | – | – | IC50 786-O (786-O; [3]): 0.009 µg/mL; IC50 LP-1 (LP-1; [3]): 0.501 µg/mL; IC50 Caki-1 (Caki-1; [3]): 0.008 µg/mL; IC50 L-428 (L428; [3]): 0.008 µg/mL; IC50 UMRC-3 (UMRC-3; [3]): 0.026 µg/mL
6 | AF-Methionine-Proline-diaminoethane-propionyl maleimide [AF-Met-Pro] | 0.008 µg/mL | 0.015 µg/mL | 0.008 µg/mL | >1 µg/mL | 0.025 µg/mL | –
7 | AF-Asparagine-(D)Aspartic Acid-diaminoethane-propionyl maleimide [AF-Asn-(D)Asp] | 0.007 µg/mL | 0.007 µg/mL | 0.014 µg/mL | >1 µg/mL | 0.071 µg/mL | –
8 | AF-Homo-β-Phenylalanine-(D)Aspartic Acid-diaminoethane-propionyl maleimide [AF-hPhe-(D)Asp] | 0.01 µg/mL | >1 µg/mL | 0.029 µg/mL | >1 µg/mL | >1 µg/mL | –
9 | AF-Tyrosine-(D)Lysine-diaminoethane-propionyl maleimide [AF-Tyr-(D)Lys] | 0.009 µg/mL | 0.011 µg/mL | 0.01 µg/mL | >1 µg/mL | 0.012 µg/mL | –
10 | AF-Methionine-(D)Aspartic Acid-diaminoethane-propionyl maleimide [AF-Met-(D)Asp] | 0.008 µg/mL | 0.01 µg/mL | 0.011 µg/mL | >1 µg/mL | 0.035 µg/mL | –
11 | AF-Tyrosine-Valine-diaminoethane-propionyl-maleimide [AF-Tyr-Val] | – | – | – | – | – | IC50 786-0 (786-O; h1F6 conjugates, ~4 drugs/Ab): 0.0037 µg/mL; IC50 LP-1 (LP-1; [4]): 0.034 µg/mL; IC50 Caki-1 (Caki-1; [4]): 0.007 µg/mL; IC50 L428 (L428; [4]): 0.003 µg/mL; IC50 U251 (U251): 0.0468 µg/mL; IC50 UMRC-3 (UMRC-3; [4]): 0.0195 µg/mL; IC50 HCT-116 (CD70−) (HCT-116 (CD70−); Table 4, ~4 drugs/Ab): >1 µg/mL
12 | AW-Methionine-(D)Lysine-diaminoethane-benzoyl maleimide [AW-Met-(D)Lys-aryl-maleimide] | – | – | – | – | – | IC50 786-O (786-O; [1]): 0.012 µg/mL; IC50 Caki-1 (Caki-1; [1]): 0.015 µg/mL; IC50 L428 (L428; [1]): >1 µg/mL; IC50 Caki-2 (Caki-2; [1]): 0.012 µg/mL
13 | AM-Tyrosine-(D)Aspartic Acid-diaminoethane-propionyl maleimide [AM-Tyr-(D)Asp] | 0.032 µg/mL | 0.023 µg/mL | 0.03 µg/mL | >1 µg/mL | 0.071 µg/mL | –
14 | AF-Methionine-(D)Valine-diaminoethane-propionyl maleimide [AF-Met-(D)Val] | 0.005 µg/mL | 0.006 µg/mL | 0.008 µg/mL | >1 µg/mL | 0.032 µg/mL | –
15 | AW-Asparagine-(D)Lysine-diaminoethane-propionyl maleimide [AW-Asn-(D)Lys] | 0.016 µg/mL | 0.015 µg/mL | 0.019 µg/mL | >1 µg/mL | 0.026 µg/mL | –
16 | AF-Methionine-diaminoethane-propionyl maleimide | – | – | – | – | – | IC50 786-O (786-O; [5]): 0.008 µg/mL; IC50 LP-1 (LP-1; [5]): 0.11 µg/mL; IC50 Caki-1 (Caki-1; [5]): 0.006 µg/mL; IC50 L-428 (L428; [5]): 0.003 µg/mL; IC50 UMRC-3 (UMRC-3; [5]): 0.017 µg/mL
17 | AF-Asparagine-Valine-diaminoethane-propionyl-maleimide [AF-Asn-Val] | – | – | – | – | – | IC50 786-0 (786-O; h1F6 conjugates, ~4 drugs/Ab): 0.0126 µg/mL; IC50 LP-1 (LP-1; [4]): 0.174 µg/mL; IC50 Caki-1 (Caki-1; [4]): 0.0223 µg/mL; IC50 L428 (L428; [4]): 0.0117 µg/mL; IC50 U251 (U251): 0.251 µg/mL; IC50 UMRC-3 (UMRC-3; [4]): 0.0468 µg/mL; IC50 HCT-116 (CD70−) (HCT-116 (CD70−); Table 4, ~4 drugs/Ab): >1 µg/mL
18 | AF-Methionine-(D)Methionine-diaminoethane-propionyl maleimide [AF-Met-(D)Met] | 0.004 µg/mL | 0.005 µg/mL | 0.004 µg/mL | >1 µg/mL | 0.013 µg/mL | –
19 | AF-Methionine-(L)Lysine-diaminoethane-propionyl maleimide [AF-Met-(L)Lys] | – | – | – | – | – | IC50 786-O (786-O; [3]): 0.007 µg/mL; IC50 LP-1 (LP-1; [3]): 0.095 µg/mL; IC50 Caki-1 (Caki-1; [3]): 0.004 µg/mL; IC50 L-428 (L428; [3]): 0.003 µg/mL; IC50 UMRC-3 (UMRC-3; [3]): 0.022 µg/mL
20 | AF-AsparticAcid-Valine-Diaminoethane-Propionyl-Maleimide [AF-Asp-Val] | – | – | – | – | – | IC50 786-0 (786-O; h1F6 conjugates, ~4 drugs/Ab): 0.018 µg/mL; IC50 LP-1 (LP-1; [4]): 0.234 µg/mL; IC50 Caki-1 (Caki-1; [4]): 0.025 µg/mL; IC50 L428 (L428; [4]): 0.018 µg/mL; IC50 U251 (U251): 0.407 µg/mL; IC50 UMRC-3 (UMRC-3; [4]): 0.054 µg/mL; IC50 HCT-116 (CD70−) (HCT-116 (CD70−); Table 4, ~4 drugs/Ab): >1 µg/mL
21 | AM-Asparagine-diaminoethane-propionyl maleimide [AM-Asn] | 0.03 µg/mL | 0.031 µg/mL | 0.032 µg/mL | >1 µg/mL | 0.063 µg/mL | –
22 | AM-Methionine-(D)Lysine-diaminoethane-propionyl maleimide [AM-Met-(D)Lys] | 0.056 µg/mL | 0.039 µg/mL | 1 µg/mL | >1 µg/mL | 0.251 µg/mL | –
23 | MMAF-Methionine-(D)Lysine-diaminoethane-propionyl maleimide [MMAF-Met-(D)Lys] | – | – | – | – | – | IC50 786-O (786-O; [6]): 0.01 µg/mL; IC50 LP-1 (LP-1; [6]): >1 µg/mL; IC50 Caki-1 (Caki-1; [6]): 0.008 µg/mL; IC50 L-428 (L428; [6]): 0.123 µg/mL; IC50 UMRC-3 (UMRC-3; [6]): 0.1 µg/mL
24 | AF-Asparagine-(D)Lysine-(D)Lysine-diaminoethane-propionyl maleimide [AF-Asn-(D)Lys-(D)Lys] | 0.009 µg/mL | 0.01 µg/mL | 0.022 µg/mL | >1 µg/mL | 0.03 µg/mL | –
25 | AF-Methionine-(D)Lysine-(D)Lysine-diaminoethane-propionyl maleimide [AF-Met-(D)Lys-(D)Lys] | 0.008 µg/mL | 0.012 µg/mL | >1 µg/mL | >1 µg/mL | 0.025 µg/mL | –
26 | AW-Tyrosine-(D)Aspartic acid-diaminoethane-propionyl maleimide [AW-Tyr-(D)Asp] | 0.018 µg/mL | 0.016 µg/mL | 0.021 µg/mL | >1 µg/mL | 0.033 µg/mL | –
27 | AF-Citrulline-(D)Lysine-diaminoethane-propionyl maleimide [AF-Cit-(D)Lys] | 0.01 µg/mL | 0.011 µg/mL | 0.047 µg/mL | >1 µg/mL | 0.016 µg/mL | –
28 | AF-Glutamine-(D)Lysine-diaminoethane-propionyl maleimide [AF-Gln-(D)Lys] | 0.012 µg/mL | 0.011 µg/mL | 0.209 µg/mL | >1 µg/mL | 0.014 µg/mL | –
29 | AF-Isoleucine-Valine-diaminoethane-propionyl-maleimide [AF-Ile-Val] | – | – | – | – | – | IC50 786-0 (786-O; h1F6 conjugates, ~4 drugs/Ab): 0.0034 µg/mL; IC50 LP-1 (LP-1; [4]): 0.019 µg/mL; IC50 Caki-1 (Caki-1; [4]): 0.0037 µg/mL; IC50 L428 (L428; [4]): 0.0025 µg/mL; IC50 U251 (U251): 0.0446 µg/mL; IC50 UMRC-3 (UMRC-3; [4]): 0.0195 µg/mL; IC50 HCT-116 (CD70−) (HCT-116 (CD70−); Table 4, ~4 drugs/Ab): >1 µg/mL
30 | AW-Asparagine-diaminoethane-propionyl maleimide [AW-Asn] | 0.018 µg/mL | 0.015 µg/mL | 0.022 µg/mL | >1 µg/mL | 0.03 µg/mL | –
